Test results taken from patent publication EP2226323A1, “New tetrahydropyrazolo[3,4-c]isoquinolin-5-amine derivatives” (Almirall, S.A., priority 2009, dated 2010).

target: recombinant PDE4 enzyme; test: PDE4 assay: [3H] cAMP Scintillation Proximity Assay (SPA) of phosphodiesterase activity; assay type: biochemical; conditions: yeast extract of recombinant PDE4 enzyme; 30 nM [3H] cAMP; 1 hr at room temperature; pH 7.5
Method: Measurement of Phosphodiesterase Activity was done using a [3H] cAMP Scintillation Proximity Assay (SPA) (GE Healthcare). Compounds to be tested were dissolved in DMSO at a stock concentration of 1 mM and serial dilutions were prepared in 50% DMSO to determine IC50s. The reactions were conducted in 96-well plates (Corning, Ref.3604) at room temperature, in 0.1 ml of reaction buffer containing (final concentrations): 50 mM Tris-HCl, pH 7.5, 8.3 mM MgCl2, 1.7 mM EGTA, 30 nM [3H] cAMP (approximately 150000 dpm/well) with or without the inhibitors. The reaction was initiated by adding yeast extract of recombinant PDE4 enzyme. Plates were shaken for 1 hr at room temperature and the incubation was terminated by adding 50 µl (0.5 mg /well) of SPA yttrium silicate beads (RPNQ 0150; GE Healthcare) in the presence of zinc sulfate. Plates were stored overnight in the dark and read on a TRILUX microtiter plate reader (Perkin Elmer).

| Compound | IC50 |
| --- | --- |
| CC1(C)CCc2c(Nc3c(Cl)cncc3Cl)nc3c(c(O)nn3Cc3cccnc3)c2C1 [Example 8, 5-(3,5-Dichloropyridin-4-ylamino)-8,8-dimethyl-3-(pyridin-3-ylmethyl)-6,7,8,9-tetrahydro-3H-pyrazolo[3,4-c]isoquinolin-1-ol] | 7.4 nM |
| CC1(C)CCc2c(Nc3c(Cl)cncc3Cl)nc3c(c(O)nn3Cc3ccc(C(=O)O)cc3)c2C1 [Example 12, 4-((5-(3,5-Dichloropyridin-4-ylamino)-1-hydroxy-8,8-dimethyl-6,7,8,9-tetrahydro-3H-pyrazolo[3,4-c]isoquinolin-3-yl)methyl)benzoic acid] | 2.4 nM |
| COc1cccc(Cn2nc(O)c3c4c(c(Nc5c(Cl)cncc5Cl)nc32)CCC(C)(C)C4)c1 [Example 4, 5-(3,5-Dichloropyridin-4-ylamino)-3-(3-methoxybenzyl)-8,8-dimethyl-6,7,8,9-tetrahydro-3H-pyrazolo[3,4-c]isoquinolin-1-ol] | 11 nM |
| CC1(C)CCc2c(Nc3c(Cl)cncc3Cl)nc3[nH]nc(O)c3c2C1 [Example 1, 5-(3,5-Dichloropyridin-4-ylamino)-8,8-dimethyl-6,7,8,9-tetrahydro-3H-pyrazolo[3,4-c]isoquinolin-1-ol] | 3.9 nM |
| CC1(C)CCc2c(Nc3c(Cl)cncc3Cl)nc3c(c(O)nn3Cc3cccc(C#N)c3)c2C1 [Example 13, 3-((5-(3,5-Dichloropyridin-4-ylamino)-1-hydroxy-8,8-dimethyl-6,7,8,9-tetrahydro-3H-pyrazolo[3,4-c]isoquinolin-3-yl)methyl)benzonitrile] | 2.35 nM |
| CC1(C)CCc2c(Nc3c(Cl)cncc3Cl)nc3c(c(O)nn3CCCN3CCOCC3)c2C1 [Example 15, 5-(3,5-Dichloropyridin-4-ylamino)-8,8-dimethyl-3-(3-morpholinopropyl)-6,7,8,9-tetrahydro-3H-pyrazolo[3,4-c]isoquinolin-1-ol] | 6.14 nM |
| CC1(C)CCc2c(Nc3c(Cl)cncc3Cl)nc3c(c(O)nn3CCCc3cccc(C(N)=O)c3)c2C1 [Example 17, 3-(3-(5-(3,5-Dichloropyridin-4-ylamino)-1-hydroxy-8,8-dimethyl-6,7,8,9-tetrahydro-3H-pyrazolo[3,4-c]isoquinolin-3-yl)propyl)benzamide] | 2.1 nM |
| CN(C)C(=O)c1cccc(S(=O)(=O)n2nc(O)c3c4c(c(Nc5c(Cl)cncc5Cl)nc32)CCC(C)(C)C4)c1 [Example 3, 3-(5-(3,5-Dichloropyridin-4-ylamino)-1-hydroxy-8,8-dimethyl-6,7,8,9-tetrahydro-3H-pyrazolo[3,4-c]isoquinolin-3-ylsulfonyl)-N, N-dimethylbenzamide] | 16.8 nM |
| CC1(C)CCc2c(Nc3c(Cl)cncc3Cl)nc3c(c(O)nn3CCCc3cccc(C#N)c3)c2C1 [Example 16, 3-(3-(5-(3,5-Dichloropyridin-4-ylamino)-1-hydroxy-8,8-dimethyl-6,7,8,9-tetrahydro-3H-pyrazolo[3,4-c]isoquinolin-3-yl)propyl)benzonitrile] | 15.5 nM |
| Methyl 3-((5-(3,5-dichloropyridin-4-ylamino)-1-hydroxy-8,8-dimethyl-6,7,8,9-tetrahydro-3H-pyrazolo[3,4-c]isoquinolin-3-yl)methyl)benzoate [Example 6] | 2 nM |
| CC1(C)CCc2c(Nc3c(Cl)cncc3Cl)nc3c(c(O)nn3Cc3cccc(C(=O)O)c3)c2C1 [Example 7, 3-((5-(3,5-Dichloropyridin-4-ylamino)-1-hydroxy-8,8-dimethyl-6,7,8,9-tetrahydro-3H-pyrazolo[3,4-c]isoquinolin-3-yl)methyl)benzoic acid] | 3.1 nM |
| CC1(C)CCc2c(Nc3c(Cl)cncc3Cl)nc3c(c(O)nn3Cc3cccc(C(N)=O)c3)c2C1 [Example 10, 3-((5-(3,5-Dichloropyridin-4-ylamino)-1-hydroxy-8,8-dimethyl-6,7,8,9-tetrahydro-3H-pyrazolo[3,4-c]isoquinolin-3-yl)methyl)benzamide] | 2.3 nM |
| CC1(C)CCc2c(Nc3c(Cl)cncc3Cl)nc3c(c(O)nn3Cc3ccc(C(N)=O)cc3)c2C1 [Example 14, 4-((5-(3,5-Dichloropyridin-4-ylamino)-1-hydroxy-8,8-dimethyl-6,7,8,9-tetrahydro-3H-pyrazolo[3,4-c]isoquinolin-3-yl)methyl)benzamide] | 5.17 nM |
| CC1(C)CCc2c(Nc3c(Cl)cncc3Cl)nc3[nH]nc(N)c3c2C1 [Example 2, N^5-(3,5-Dichloropyridin-4-yl)-8,8-dimethyl-6,7,8,9-tetrahydro-3H-pyrazolo[3,4-c]isoquinoline-1,5-diamine] | 62 nM |
| Cn1nc(O)c2c3c(c(Nc4c(Cl)cncc4Cl)nc21)CCC(C)(C)C3 [Example 5, 5-(3,5-Dichloropyridin-4-ylamino)-3,8,8-trimethyl-6,7,8,9-tetrahydro-3H-pyrazolo[3,4-c]isoquinolin-1-ol] | 17.1 nM |
| CC1(C)CCc2c(Nc3c(Cl)cncc3Cl)nc3c(c(O)nn3CC(N)=O)c2C1 [Example 9, 2-(5-(3,5-Dichloropyridin-4-ylamino)-1-hydroxy-8,8-dimethyl-6,7,8,9-tetrahydro-3H-pyrazolo[3,4-c]isoquinolin-3-yl)acetamide] | 18.8 nM |
